Drawing on patent publication US8445451B2, “Macrolides and uses of macrolides” (Basilea Pharmaceutica AG, priority 2008, dated 2013), this text covers IC50 and PDE4-inhibiting activity for 18 compounds.

Molecules are shown by their SMILES.

As a reminder, the IC50 is the concentration that inhibits the measured activity by half. A low value points to inhibition by little substance.

The first test relates to T1, human PDE4.
T1 construct: PDE4 is partially purified from undifferentiated human monocytic cells (U-937) according to Thorpy et al. 1992 (J. Pharmacol. Exp. Ther. 263: 1195)
Put plainly: IMAP FP in vitro enzymatic PDE4 inhibition assay. The format is biochemical. The conditions noted are these: PDE4 partially purified from human monocytic U-937 cells; 90 minutes at room temperature; fluorescence polarization. Here is the method:
PDE4 specifically hydrolyzes cAMP and releases the product AMP. The potency of PDE inhibition by said agents is determined in an in vitro enzymatic assay. The assay is commercially available (IMAP™ FP assay Molecular Devices Corp.(MDS)) and is optimized for the use of human PDE4. Fluorescently labeled cAMP is hydrolyzed by PDE4 and in a second step, binding of labeled product to a large binding partner allowed product detection by fluorescence polarization (FP) measurements.
PDE4 is partially purified from undifferentiated human monocytic cells (U-937) according to Thorpy et al. 1992 (J. Pharmacol. Exp. Ther. 263: 1195). […] In addition, PDE4 preparations are validated by inhibition studies with PDE4-specific and unspecific PDE inhibitors.
Stock solutions of test compounds are made in DMSO and diluted in assay buffer (10 mM Tris-HCl, 10 mM MgCl2, 0.1% BSA 0.05% NaN3, pH 7.2) to the desired concentrations. The solutions used in the assay contained test compound in assay buffer with 2% DMSO.
10 μl of substrate (at a concentration recommended by the manufacturer) are mixed with 5 μl of appropriately diluted PDE and 5 μl of test compound solution. 5 μl of reaction buffer with 2% DMSO are used for control reactions. […] After incubation for 90 minutes at room temperature, 60 μl of binding reagent are added as specified by the manufacturer. Binding is allowed to proceed for 30 minutes and fluorescence polarization is measured. Dose dependence of PDE inhibition is measured by assaying dilution series of test compounds in duplicates. IC50 values are determined from the measured activities by curve fitting.
(In general: Polarisation of emitted light reports the rotation of a fluorescent probe.)
As for `CC[C@H]1OC(=O)[C@H](C)[C@@H](O)[C@H](C)[C@@H](O[C@@H]2O[C@H](C)C[C@H](N(C)C)[C@H]2O)[C@](C)(OC)C[C@@H](C)C(=O)[C@H](C)[C@H]2[C@H](SCCNc3c(C(=O)Nc4c(Cl)cncc4Cl)cnc4c3cnn4CC)C(=O)O[C@@]21C` [Example 16], the IC50 stood at 110 nM.

`CC[C@H]1OC(=O)[C@H](C)C(=O)[C@H](C)[C@@H](O[C@@H]2O[C@H](C)C[C@H](N(C)C)[C@H]2O)[C@](C)(OC)C[C@@H](C)C(=O)[C@H](C)[C@H]2[C@H](SCCN(Cc3c(Cl)cncc3Cl)c3ccc(OC)c(OC4CCCC4)c3)C(=O)O[C@@]21C` [Example 15]: half-maximal inhibition (IC50) required 480 nM. This IC50 is about 4.4-fold higher than that of the compound before.

In the case of `CC[C@H]1OC(=O)[C@H](C)[C@@H](O[C@H]2C[C@@](C)(OC)[C@@H](O)[C@H](C)O2)[C@H](C)[C@@H](O[C@@H]2O[C@H](C)C[C@H](N(C)C)[C@H]2O)[C@](C)(OC)C[C@@H](C)C(=O)[C@H](C)[C@H]2[C@H](SCCn3cnc4c(N)nc(NCc5ccncc5)nc43)C(=O)O[C@@]21C` [Example 13], the IC50 was determined as 2600 nM.

Consider `CSCCn1cnc2c(N)ncc(C(=O)Nc3c(Cl)cncc3Cl)c21` [reference compound], for which the IC50 came out at 3600 nM.

On to `CC[C@H]1OC(=O)[C@H](C)[C@@H](O[C@H]2C[C@@](C)(OC)[C@@H](O)[C@H](C)O2)[C@H](C)[C@@H](O[C@@H]2O[C@H](C)C[C@H](N(C)C)[C@H]2O)[C@](C)(OC)C[C@@H](C)C(=O)[C@H](C)[C@H]2[C@H](SCCn3cnc4c(N)ncc(C(=O)Nc5ccncc5)c43)C(=O)O[C@@]21C` [Example 10], for which half-maximal inhibition (IC50) was put at 1000 nM. Against the preceding compound, the IC50 is about 3.6-fold lower.

Turning to `CC[C@H]1OC(=O)[C@H](C)[C@@H](O[C@H]2C[C@@](C)(OC)[C@@H](O)[C@H](C)O2)[C@H](C)[C@@H](O[C@@H]2O[C@H](C)C[C@H](N(C)C)[C@H]2O)[C@](C)(OC)C[C@@H](C)C(=O)[C@H](C)[C@H]2[C@H](SCCCc3c(C(=O)Nc4ccncc4)ccc(OC)c3OC)C(=O)O[C@@]21C` [Example 7], the IC50 is 7600 nM.

Regarding `CC[C@H]1OC(=O)[C@H](C)[C@@H](O)[C@H](C)[C@@H](O[C@@H]2O[C@H](C)C[C@H](N(C)C)[C@H]2O)[C@](C)(OC)C[C@@H](C)C(=O)[C@H](C)[C@H]2[C@H](SCCn3cnc4c(N)ncc(C(=O)Nc5c(Cl)cncc5Cl)c43)C(=O)O[C@@]21C` [Example 14], the midpoint of inhibition, the IC50, lay at 4.9 nM. Compared with the last compound, the IC50 is about 1600-fold lower.

As for `CC[C@H]1OC(=O)[C@H](C)[C@@H](O[C@H]2C[C@@](C)(OC)[C@@H](O)[C@H](C)O2)[C@H](C)[C@@H](O[C@@H]2O[C@H](C)C[C@H](N(C)C)[C@H]2O)[C@](C)(OC)C[C@@H](C)C(=O)[C@H](C)[C@H]2[C@H](SCCCn3cnc4c(N)ncc(C(=O)Nc5ccncc5)c43)C(=O)O[C@@]21C` [Example 8], inhibition was half-maximal at 4700 nM (IC50).

Consider `CCC1OC(=O)C(C)C(OC2CC(C)(OC)C(O)C(C)O2)C(C)C(OC2OC(C)CC(N(C)C)C2O)C(C)(OC)CC(C)C(=O)C(C)C2C(SCCn3c(CCc4cccnc4)nc4c(N)ncnc43)C(=O)OC12C` (stereo not drawn) [Example 1], for which the IC50 was found to be 13400 nM.

The compound `CC[C@H]1OC(=O)[C@H](C)[C@@H](O[C@H]2C[C@@](C)(OC)[C@@H](O)[C@H](C)O2)[C@H](C)[C@@H](O[C@@H]2O[C@H](C)C[C@H](N(C)C)[C@H]2O)[C@](C)(OC)C[C@@H](C)C(=O)[C@H](C)[C@H]2[C@H](SCCn3cnc4c(N)ncc(C(=O)Nc5c(Cl)cncc5Cl)c43)C(=O)O[C@@]21C` [Example 11] had an IC50 of 8 nM.

Consider `CC[C@H]1OC(=O)[C@H](C)[C@@H](O[C@H]2C[C@@](C)(OC)[C@@H](O)[C@H](C)O2)[C@H](C)[C@@H](O[C@@H]2O[C@H](C)C[C@H](N(C)C)[C@H]2O)[C@](C)(OC)C[C@@H](C)C(=O)[C@H](C)[C@H]2[C@H](SCCN(C(=O)c3ccncc3)c3ccc(OC)c(OC4CCCC4)c3)C(=O)O[C@@]21C` [Example 3], for which half-maximal inhibition (IC50) was put at 3400 nM. This IC50 is about 420-fold higher than that of the compound before.

`CC[C@H]1OC(=O)[C@H](C)[C@@H](O[C@H]2C[C@@](C)(OC)[C@@H](O)[C@H](C)O2)[C@H](C)[C@@H](O[C@@H]2O[C@H](C)C[C@H](N(C)C)[C@H]2O)[C@](C)(OC)C[C@@H](C)C(=O)[C@H](C)[C@H]2[C@H](SCCN(Cc3cccnc3)c3ccc(OC)c(OC4CCCC4)c3)C(=O)O[C@@]21C` [Example 5] yielded an IC50 of 850 nM.

Regarding `CC[C@H]1OC(=O)[C@H](C)[C@@H](O[C@H]2C[C@@](C)(OC)[C@@H](O)[C@H](C)O2)[C@H](C)[C@@H](O[C@@H]2O[C@H](C)C[C@H](N(C)C)[C@H]2O)[C@](C)(OC)C[C@@H](C)C(=O)[C@H](C)[C@H]2[C@H](SCCn3cnc4c(N)nc(NCc5cccnc5)nc43)C(=O)O[C@@]21C` [Example 12], the IC50 was determined as 3800 nM.

Compound `CC[C@H]1OC(=O)[C@H](C)[C@@H](O[C@H]2C[C@@](C)(OC)[C@@H](O)[C@H](C)O2)[C@H](C)[C@@H](O[C@@H]2O[C@H](C)C[C@H](N(C)C)[C@H]2O)[C@](C)(OC)C[C@@H](C)C(=O)[C@H](C)[C@H]2[C@H](SCCn3c(Nc4cccnc4)nc4c(N)ncnc43)C(=O)O[C@@]21C` [Example 2] displayed a 50% inhibitory concentration (IC50) of 3900 nM.

`CC[C@H]1OC(=O)[C@H](C)[C@@H](O[C@H]2C[C@@](C)(OC)[C@@H](O)[C@H](C)O2)[C@H](C)[C@@H](O[C@@H]2O[C@H](C)C[C@H](N(C)C)[C@H]2O)[C@](C)(OC)C[C@@H](C)C(=O)[C@H](C)[C@H]2[C@H](SCCN(Cc3ccncc3)c3ccc(OC)c(OC4CCCC4)c3)C(=O)O[C@@]21C` [Example 4] showed an IC50 of 280 nM.

Compound `CC[C@H]1OC(=O)[C@H](C)[C@@H](O[C@H]2C[C@@](C)(OC)[C@@H](O)[C@H](C)O2)[C@H](C)[C@@H](O[C@@H]2O[C@H](C)C[C@H](N(C)C)[C@H]2O)[C@](C)(OC)C[C@@H](C)C(=O)[C@H](C)[C@H]2[C@H](SCCCn3cnc4c(N)ncc(C(=O)NCC(=O)OC)c43)C(=O)O[C@@]21C` [Example 9] came in with an IC50 of 24200 nM.

`CC[C@H]1OC(=O)[C@H](C)[C@@H](O[C@H]2C[C@@](C)(OC)[C@@H](O)[C@H](C)O2)[C@H](C)[C@@H](O[C@@H]2O[C@H](C)C[C@H](N(C)C)[C@H]2O)[C@](C)(OC)C[C@@H](C)C(=O)[C@H](C)[C@H]2[C@H](SCCNc3c(C(=O)Nc4c(Cl)cncc4Cl)cnc4c3cnn4CC)C(=O)O[C@@]21C` [Example 6] had an IC50 of 370 nM.

The same test, now with this note: up to a concentration of 50 μM in the assay used in the examples.
In the case of `CC[C@H]1OC(=O)[C@H](C)[C@@H](O[C@H]2C[C@@](C)(OC)[C@@H](O)[C@H](C)O2)[C@H](C)[C@@H](O[C@@H]2O[C@H](C)C[C@H](N(C)C)[C@H]2O)[C@](C)(OC)C[C@@H](C)C(=O)[C@H](C)[C@H]2[C@H](SC)C(=O)O[C@@]21C` [reference compound], the PDE4-inhibiting activity entry is listed as “does not show any PDE4-inhibiting activity”.
